From ChEMBL document CHEMBL1145669, “Antihepatotoxic principles of Atractylodes rhizomes” (1983) come the findings set out here.

For assay [1], the system named is Hepatocyte. As to the kind of experiment: Antihepatotoxic activity against galactosamine-induced cytotoxicity in rat hepatocytes assessed as GPT level at 1 mg/mL relative to control. Format: functional.
For assay [2], the system named is Hepatocyte. As to the kind of experiment: Antihepatotoxic activity against carbon tetrachloride-induced cytotoxicity in rat hepatocytes assessed as GPT level at 1 mg/mL relative to control. Format: functional.
For assay [3], the target named is T1, Alanine aminotransferase 1 (Rattus norvegicus) (UniProt P25409).
T1 sequence (whole entry): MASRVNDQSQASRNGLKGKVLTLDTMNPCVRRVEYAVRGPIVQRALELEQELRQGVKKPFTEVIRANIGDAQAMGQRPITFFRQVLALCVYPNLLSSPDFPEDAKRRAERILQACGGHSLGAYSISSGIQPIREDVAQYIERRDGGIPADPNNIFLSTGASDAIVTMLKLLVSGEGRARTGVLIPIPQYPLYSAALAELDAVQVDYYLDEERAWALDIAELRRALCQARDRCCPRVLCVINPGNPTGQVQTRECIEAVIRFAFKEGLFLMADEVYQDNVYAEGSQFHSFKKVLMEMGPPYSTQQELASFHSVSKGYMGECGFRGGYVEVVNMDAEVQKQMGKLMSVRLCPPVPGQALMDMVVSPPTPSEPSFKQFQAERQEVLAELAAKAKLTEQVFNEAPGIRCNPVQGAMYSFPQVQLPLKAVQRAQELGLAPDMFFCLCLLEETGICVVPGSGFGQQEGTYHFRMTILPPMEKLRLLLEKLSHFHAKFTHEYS
The assay can be described thus: Effect on GPT in rat hepatocytes relative to control. In kind it is cell-based. To be noted: Hepatocyte.

Assay [4] deals with Hepatocyte. As to the kind of experiment: Antihepatotoxic activity against carbon tetrachloride-induced cytotoxicity in rat hepatocytes assessed as GPT level at 0.1 mg/mL relative to control. Format: functional.
Assay [5] has as its system Hepatocyte. The assay can be described thus: Antihepatotoxic activity against carbon tetrachloride-induced cytotoxicity in rat hepatocytes assessed as GPT level at 0.01 mg/mL relative to control. In kind it is functional.
Assay [6] concerns Hepatocyte. The assay can be described thus: Antihepatotoxic activity against galactosamine-induced cytotoxicity in rat hepatocytes assessed as GPT level at 0.01 mg/mL relative to control. In kind it is functional.
For assay [7], the system named is Hepatocyte. As to the kind of experiment: Antihepatotoxic activity against galactosamine-induced cytotoxicity in rat hepatocytes assessed as GPT level at 0.1 mg/mL relative to control. In kind it is functional.

With `C[C@H]1CCC[C@]2(C)CC(=O)[C@@H](C(C)(C)O)C[C@@H]12`, the Activity in assay [1] came out at 81%; in assay [2], 71%.
For `C[C@H]1CCC[C@]2(C)CC(O)[C@@H](C(C)(C)O)C[C@@H]12` (stereo partly drawn) the same measures were 82% and 44%.
For `C=C1CCC[C@]2(C)C[C@]3(O)OC(=O)C(C)=C3C[C@@H]12` [ATRACTYLENOLIDE III] the same measures were 97% and 103%.
For `C=C1CCC[C@]2(C)C[C@@H]3OC(=O)C(C)=C3C[C@@H]12` [ATRACTYLENOLIDE II] the same measures were 94% and 74%.
Turning to `C=C1CCC[C@]2(C)C=C3OC(=O)C(C)=C3C[C@@H]12` [ATRACTYLENOLIDE I], the figures for the Activity in assay [1] and in assay [2] were 107% and 68%, respectively.
Take `C=C1CCC[C@]2(C)Cc3occ(C)c3C[C@@H]12` [ATRACTYLON]: the Activity is 106% in assay [3]; 53% in assay [4]; 67% in assay [5]; 84% in assay [1]; 25% in assay [2]; 99% in assay [6]. Further, the Activity in assay [7] came out at 92%.
Consider `C=C1CCC[C@]2(C)CC[C@@H](C(C)(C)O)C[C@@H]12` [BETA-EUDESMOL], for which the Activity amounted to 106% in assay [3]; 70% in assay [4]; 83% in assay [5]; 79% in assay [1]; 53% in assay [2]; 104% in assay [6]. Moreover, the Activity in assay [7] came out at 94%.
As for `C[C@H]1CCC[C@]2(C)CC[C@@H](C(C)(C)O)C[C@H]12` [DIHYDROEUDESMOL], the figures for the Activity in assay [1] and in assay [2] were 83% and 58%, respectively.
In the case of `CC1CCC[C@H](C)[C@@]12CC[C@@H](C(C)(C)O)C2` (stereo partly drawn) [DIHYDROHINESOL], the Activity in assay [1] is given as 35%; in assay [2] it was 67%.
For the compound `OCc1ccco1` [FURFURYL ALCOHOL], the Activity in assay [4] is listed as 101%; in assay [5], 102%; in assay [2], 90%.
`CC1=CCC[C@H](C)[C@@]12CC[C@@H](C(C)(C)O)C2` [HINESOL]: the Activity in assay [3] was 105%; in assay [4] it was 62%; in assay [5], 79%; in assay [1], 73%; in assay [2], 31%; in assay [6], 101%. In addition, the Activity in assay [7] turned out to be 99%.
